Measurements taken from PubChem BioAssay (NCI).
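The compound was tested at five concentrations on cells cultured in 96-well plates, with a 48-hour exposure period. At the GI50, growth is halved. TGI: concentration producing complete growth inhibition.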

Key:
Assay in all cases: inhibition of tumour cell growth, NCI panel, 48 h
HOP-62 NSCLC = test system: HOP-62 NSCLC
ACHN renal = test system: ACHN renal
CAKI-1 renal = test system: CAKI-1 renal
T-47D breast = test system: T-47D breast
NCI-H460 lung = test system: NCI-H460 lung
OVCAR-3 ovarian = test system: OVCAR-3 ovarian
SK-MEL-28 melanoma = test system: SK-MEL-28 melanoma
TK-10 renal = test system: TK-10 renal
SK-MEL-2 melanoma = test system: SK-MEL-2 melanoma
SF-268 CNS = test system: SF-268 CNS
786-0 renal = test system: 786-0 renal
A498 renal = test system: A498 renal
SK-MEL-5 melanoma = test system: SK-MEL-5 melanoma
RXF 393 renal = test system: RXF 393 renal
RPMI-8226 leukemia = test system: RPMI-8226 leukemia
PC-3 prostate = test system: PC-3 prostate
SF-295 CNS = test system: SF-295 CNS
HCT-15 colon = test system: HCT-15 colon
MDA-N = test system: MDA-N
UACC-257 melanoma = test system: UACC-257 melanoma
OVCAR-4 ovarian = test system: OVCAR-4 ovarian
HCT-116 colon = test system: HCT-116 colon
SF-539 CNS = test system: SF-539 CNS
M14 melanoma = test system: M14 melanoma
EKVX NSCLC = test system: EKVX NSCLC
MALME-3M melanoma = test system: MALME-3M melanoma
DU-145 prostate = test system: DU-145 prostate
HT29 colon = test system: HT29 colon
SW-620 colon = test system: SW-620 colon
SNB-19 CNS = test system: SNB-19 CNS
NCI/ADR-RES ovarian = test system: NCI/ADR-RES ovarian
SNB-75 CNS = test system: SNB-75 CNS
HCC-2998 colon = test system: HCC-2998 colon
K-562 leukemia = test system: K-562 leukemia
NCI-H522 lung = test system: NCI-H522 lung
MDA-MB-231 breast = test system: MDA-MB-231 breast
SK-OV-3 ovarian = test system: SK-OV-3 ovarian
KM12 colon = test system: KM12 colon
BT-549 breast = test system: BT-549 breast
UO-31 renal = test system: UO-31 renal
COLO 205 colon = test system: COLO 205 colon
NCI-H226 lung = test system: NCI-H226 lung
MCF7 breast = test system: MCF7 breast
SN12C renal = test system: SN12C renal
U251 CNS = test system: U251 CNS
HS 578T breast = test system: HS 578T breast
A549 NSCLC = test system: A549 NSCLC
MDA-MB-435 = test system: MDA-MB-435
UACC-62 melanoma = test system: UACC-62 melanoma
NCI-H23 lung = test system: NCI-H23 lung
OVCAR-5 ovarian = test system: OVCAR-5 ovarian

**Q.** For `Cc1ccc(NC(=O)c2cc3ccccc3cc2O)c(C)c1.Cc1ccc(NC(=O)c2cc3ccccc3cc2[O-])c(C)c1.[Ni+2]`, which GI50 (HOP-62 NSCLC) is on record?
**A.** 3.87 µM

**Q.** And the TGI (HOP-62 NSCLC)?
**A.** 17 µM

**Q.** And the GI50 (ACHN renal)?
**A.** 4.22 µM

**Q.** And the GI50 (CAKI-1 renal)?
**A.** 3.08 µM

**Q.** And the TGI (CAKI-1 renal)?
**A.** 13.1 µM

**Q.** What about the GI50 (T-47D breast) of the same molecule?
**A.** 3.08 µM

**Q.** What about the TGI (T-47D breast) of the same molecule?
**A.** 14.8 µM

**Q.** What about the GI50 (NCI-H460 lung) of the same molecule?
**A.** 2.77 µM

**Q.** What about the TGI (NCI-H460 lung) of the same molecule?
**A.** 14.3 µM

**Q.** What about the GI50 (OVCAR-3 ovarian) of the same molecule?
**A.** 4.23 µM

**Q.** And the TGI (OVCAR-3 ovarian)?
**A.** 20.6 µM

**Q.** What about the GI50 (SK-MEL-28 melanoma) of the same molecule?
**A.** 6.42 µM

**Q.** What about the TGI (SK-MEL-28 melanoma) of the same molecule?
**A.** 88.1 µM

**Q.** And the GI50 (TK-10 renal)?
**A.** 4.66 µM

**Q.** What about the TGI (TK-10 renal) of the same molecule?
**A.** 17 µM

**Q.** And the GI50 (SK-MEL-2 melanoma)?
**A.** 1.53 µM

**Q.** And the TGI (SK-MEL-2 melanoma)?
**A.** 3.62 µM

**Q.** What about the GI50 (SF-268 CNS) of the same molecule?
**A.** 3.52 µM

**Q.** What about the TGI (SF-268 CNS) of the same molecule?
**A.** 17.2 µM

**Q.** And the GI50 (786-0 renal)?
**A.** 3.77 µM

**Q.** What about the TGI (786-0 renal) of the same molecule?
**A.** 14.6 µM

**Q.** And the GI50 (A498 renal)?
**A.** 3.44 µM

**Q.** What about the TGI (A498 renal) of the same molecule?
**A.** 13.4 µM

**Q.** And the GI50 (SK-MEL-5 melanoma)?
**A.** 2.57 µM

**Q.** And the TGI (SK-MEL-5 melanoma)?
**A.** 10.2 µM

**Q.** What about the GI50 (RXF 393 renal) of the same molecule?
**A.** 1.9 µM

**Q.** And the TGI (RXF 393 renal)?
**A.** 6.37 µM

**Q.** And the GI50 (RPMI-8226 leukemia)?
**A.** 1.94 µM

**Q.** What about the TGI (RPMI-8226 leukemia) of the same molecule?
**A.** 6.1 µM

**Q.** And the TGI (PC-3 prostate)?
**A.** 5.38 µM

**Q.** What about the GI50 (SF-295 CNS) of the same molecule?
**A.** 3.89 µM

**Q.** What about the TGI (SF-295 CNS) of the same molecule?
**A.** 14.3 µM

**Q.** And the GI50 (HCT-15 colon)?
**A.** 3.24 µM

**Q.** And the TGI (HCT-15 colon)?
**A.** 17.2 µM

**Q.** What about the GI50 (MDA-N) of the same molecule?
**A.** 3.44 µM

**Q.** What about the TGI (MDA-N) of the same molecule?
**A.** 17.3 µM

**Q.** And the GI50 (UACC-257 melanoma)?
**A.** 2.94 µM

**Q.** What about the TGI (UACC-257 melanoma) of the same molecule?
**A.** 7.85 µM

**Q.** What about the GI50 (OVCAR-4 ovarian) of the same molecule?
**A.** 3.88 µM

**Q.** What about the TGI (OVCAR-4 ovarian) of the same molecule?
**A.** 25.4 µM

**Q.** And the GI50 (HCT-116 colon)?
**A.** 2.79 µM

**Q.** What about the TGI (HCT-116 colon) of the same molecule?
**A.** 11.4 µM

**Q.** And the GI50 (SF-539 CNS)?
**A.** 4.75 µM

**Q.** And the TGI (SF-539 CNS)?
**A.** 53.2 µM

**Q.** What about the GI50 (M14 melanoma) of the same molecule?
**A.** 4.31 µM

**Q.** What about the TGI (M14 melanoma) of the same molecule?
**A.** 13.9 µM

**Q.** What about the GI50 (EKVX NSCLC) of the same molecule?
**A.** 2.57 µM

**Q.** And the TGI (EKVX NSCLC)?
**A.** 8.99 µM

**Q.** What about the GI50 (MALME-3M melanoma) of the same molecule?
**A.** 3.4 µM

**Q.** And the TGI (MALME-3M melanoma)?
**A.** 14.3 µM

**Q.** What about the GI50 (DU-145 prostate) of the same molecule?
**A.** 3.27 µM

**Q.** What about the TGI (DU-145 prostate) of the same molecule?
**A.** 13.2 µM

**Q.** And the GI50 (HT29 colon)?
**A.** 3.14 µM

**Q.** What about the TGI (HT29 colon) of the same molecule?
**A.** 10.9 µM

**Q.** And the GI50 (SW-620 colon)?
**A.** 4.24 µM

**Q.** What about the TGI (SW-620 colon) of the same molecule?
**A.** 36.8 µM

**Q.** And the GI50 (SNB-19 CNS)?
**A.** 3.72 µM

**Q.** What about the TGI (SNB-19 CNS) of the same molecule?
**A.** 20.2 µM

**Q.** And the GI50 (NCI/ADR-RES ovarian)?
**A.** 2.45 µM

**Q.** And the TGI (NCI/ADR-RES ovarian)?
**A.** 8.6 µM

**Q.** What about the GI50 (SNB-75 CNS) of the same molecule?
**A.** 2.78 µM

**Q.** And the TGI (SNB-75 CNS)?
**A.** 6.7 µM

**Q.** And the GI50 (HCC-2998 colon)?
**A.** 2.63 µM

**Q.** What about the TGI (HCC-2998 colon) of the same molecule?
**A.** 6.74 µM

**Q.** What about the GI50 (K-562 leukemia) of the same molecule?
**A.** 3.7 µM

**Q.** And the TGI (K-562 leukemia)?
**A.** 12.9 µM

**Q.** And the GI50 (NCI-H522 lung)?
**A.** 3.08 µM

**Q.** And the TGI (NCI-H522 lung)?
**A.** 10.5 µM

**Q.** And the GI50 (MDA-MB-231 breast)?
**A.** 2.33 µM

**Q.** And the TGI (MDA-MB-231 breast)?
**A.** 5.27 µM

**Q.** And the GI50 (SK-OV-3 ovarian)?
**A.** 2.9 µM

**Q.** What about the TGI (SK-OV-3 ovarian) of the same molecule?
**A.** 11.6 µM

**Q.** What about the GI50 (KM12 colon) of the same molecule?
**A.** 3.41 µM

**Q.** And the TGI (KM12 colon)?
**A.** 15.9 µM

**Q.** And the GI50 (BT-549 breast)?
**A.** 2.44 µM

**Q.** And the TGI (BT-549 breast)?
**A.** 7.55 µM

**Q.** What about the GI50 (UO-31 renal) of the same molecule?
**A.** 3.79 µM

**Q.** What about the TGI (UO-31 renal) of the same molecule?
**A.** 11.9 µM

**Q.** What about the GI50 (COLO 205 colon) of the same molecule?
**A.** 6.65 µM

**Q.** And the TGI (COLO 205 colon)?
**A.** 24.6 µM

**Q.** What about the GI50 (NCI-H226 lung) of the same molecule?
**A.** 3.49 µM

**Q.** And the TGI (NCI-H226 lung)?
**A.** 8.37 µM

**Q.** What about the GI50 (MCF7 breast) of the same molecule?
**A.** 3.45 µM

**Q.** And the GI50 (SN12C renal)?
**A.** 3.12 µM

**Q.** What about the TGI (SN12C renal) of the same molecule?
**A.** 15.1 µM

**Q.** What about the GI50 (U251 CNS) of the same molecule?
**A.** 2.91 µM

**Q.** And the TGI (U251 CNS)?
**A.** 8.62 µM

**Q.** And the GI50 (HS 578T breast)?
**A.** 2.98 µM

**Q.** And the TGI (HS 578T breast)?
**A.** 9.38 µM

**Q.** What about the GI50 (A549 NSCLC) of the same molecule?
**A.** 3.44 µM

**Q.** And the TGI (A549 NSCLC)?
**A.** 15.6 µM

**Q.** What about the GI50 (MDA-MB-435) of the same molecule?
**A.** 3.38 µM

**Q.** What about the TGI (MDA-MB-435) of the same molecule?
**A.** 13.1 µM

**Q.** What about the GI50 (UACC-62 melanoma) of the same molecule?
**A.** 4.91 µM

**Q.** What about the TGI (UACC-62 melanoma) of the same molecule?
**A.** 21.2 µM

**Q.** What about the GI50 (NCI-H23 lung) of the same molecule?
**A.** 2.48 µM

**Q.** And the TGI (NCI-H23 lung)?
**A.** 10.1 µM

**Q.** And the GI50 (OVCAR-5 ovarian)?
**A.** 4.25 µM

**Q.** What about the TGI (OVCAR-5 ovarian) of the same molecule?
**A.** 17.9 µM
